# US10786521B2, “Methods and compositions for treatment of COPD diseases” (Shanghai KE Pharmaceutical Co., LTD, priority 2014, dated 2020)
# Entries after “also recorded” stand apart in the source; their conditions may differ.
# Experiments:
# [1] = tested on: airway smooth muscle (bronchial rings); assay: Relaxation of evoked isometric force of bronchial rings (wire myograph); type: cell-based, mice; settings: for relaxation of MCh-evoked force at final concentration of 500 μM: 500 μM final, bronchi ring isometric assay; for IC50: MCh-evoked force, dose dependent; for relaxation of evoked force of airway smooth muscle / bronchial rings: in vitro, concentration not given
# Experimental: Briefly, the entire respiratory tree was rapidly removed and immersed in Krebs-Henseleit buffer (118.1 mM NaCl, 4.7 mM KCl, 1.2 mM MgSO4, 2.5 mM CaCl2, 1.0 mM NaH2PO4, 25 mM NaHCO3 and 11.1 mM glucose, pH 7.4). Bronchial rings, 2 mm in length, were isolated from pulmonary bronchi using a dissection microscope. Then the bronchial segments were mounted in a small-vessel wire myograph chamber (Danish Myo Technology, Aarhus, Denmark) by threading on two steel wires (40 μm in diameter) secured to two supports. One support was attached to a force transducer for measurements of isometric force development, and the other was attached to a micrometer controlling ring circumference. The preparation was kept in the chamber, immersed in 5 ml of Krebs-Henseleit solution, bubbled with 5% CO2 and 95% O2 and maintained at 37° C. The initial isometric tension of bronchial ring was set to 0 mN prior to equilibration for 20 min. The bronchial ring was then stretched in order to keep the force at 5 mN followed by an additional equilibration for 20 min. The isometric forces produced by bronchial ring was recorded with a data acquisition and analysis program (Danish Myo Technology, Aarhus, Denmark).
# The robust relaxation effect and low risk of toxicity of KE on airway smooth muscle indicates its promising prospects for development. To identify the active ingredients of KE, the KE was divided into three parts including EtOAc phase, n-BuOH phase and water phase using EtOAc and n-BuOH sequential extraction. Upon the airway smooth muscle rings reached a relative steady contraction state evoked by MCh, accumulated volume of these three phases was added to assess the relaxation capacity. […] On the other hand, 1 μL of EtOAc phase just relaxed the rings to 90%.
# Their dose-responsive effect on relaxation of airway smooth muscle was measured. When the force evoked by acetylcholine reached a relatively steady state, kudinosides were added to the bath in cumulative concentrations (0.1 μM, 0.3 μM, 1 μM, 3 μM, 10 μM, 30 μM). […] When the concentration of kudinoside D increased to 10 μM, about 50% of the force was relaxed. Strikingly, upon treatment with 30 μM of kudinoside D, more than 80% of the force was relaxed (FIG. 5B). Similarly, 30 μM of kudinoside A also led to 80% inhibition of evoked force. Note that the relaxation effect of kudinosides was completely reversible, because the relaxed muscles restored response to MCh after washing off.
# [2] = tested on: asthmatic airway constriction in acute asthma mouse model; assay: Airway resistance (Rrs, FlexiVent) in OVA-induced, methacholine-challenged asthma mice; type: in vivo, C57BL/6 mice; settings: for inhibition of airway constriction in vivo: mouse
# Experimental: Asthma mice were established as reported previously. Briefly, six to eight-week-old female C57BL/6 mice were carried out by intraperitoneal injection of 100 μg ovalbumin and 4 mg Imject Alum (ThermoFisher Scientific) in total volume of 0.2 mL on days 0 and 14. These mice were then challenged with 1.5%-2% aerosolized ovalbumin for 1 h on days 24, 25 and 26. The efficacy of drugs was evaluated by measuring airway resistance in these mice 24 h after the last challenge.
# (§1) The airway resistance was measured through an invasive method as described in previous reports. In brief, the mice were anesthetized with 240 mg/kg Avertin and the trachea was cannulated with an 18-gauge metal needle. Mechanical ventilation (FlexiVent; SCIREQ Inc., Montreal, Canada) was applied at a frequency of 150 breaths per minute, a tidal volume of 10 ml/kg, and positive end-expiratory pressure of 2.5 cm H2O. Prior to methacholine challenge, deep inflation was applied followed by administration of aerosolized PBS to obtain stabilization of airway resistance (Rrs, cmH2O·s/mL). The Rrs after PBS was considered to be the baseline. Then mice were challenged with sequential concentrations of methacholine with a dose of 2.0, 4.0, 8.0, 16, 32 and 64 mg/mL by an ultrasonic nebulizer until reaching bronchoconstrictive phase that was four to five folds greater than baseline. Three minutes after the last dose of methacholine inhalation, the reagents were delivered by the same ultrasonic nebulizer. The Rrs measurements were performed every 30 s throughout the experiments. The negative control for these studies was PBS, because all the solvents for reagents used here were PBS. As a positive control, albuterol (3 μg; Sigma), the most widely used β-agonist as an effective bronchodilator for asthma therapy, was used.
# as §1, with “Acute asthma model mice were established as reported previously. Briefly, six to eight-week-old female C57BL/6 mice were carried out by intraperitoneal injection of 100 μg ovalbumin and 4 mg Imject Alum (ThermoFisher Scientific) in total volume of 0.2 mL on days 0 and 14. These mice were then challenged with 1.5%-2% aerosolized ovalbumin for 1 h on days 24, 25 and 26. The efficacy of drugs by measuring airway resistance in these mice 24 h was evaluated after the last challenge. The airway” for “The airway”
# human asthma (severe) = assay: Kudinoside A inhalation (atomization device) in two volunteers with severe asthma syndromes; type: in vivo; settings: volunteer; for time to release of dyspnea: kudinoside A 20 mM inhaled for 15 seconds, albuterol as control
# Experimental: In order to test the effect of single substance in KE extract on asthma therapy, two volunteers with severe asthma syndromes were treated with kudinoside A (20 mM) with an atomization device.
# L-type calcium channel = target: T1, L-type calcium channel (Mus musculus, UniProt Q01815); assay: Whole-cell patch clamp recording of VDCC currents in primary airway smooth muscle cells; type: cell-based; settings: 50 μM; room temperature; pulses −60 to +50 mV from −80 mV
# T1 construct: endogenous in cells; host or cells: primary airway smooth muscle cells
# T1 sequence (Q01815 whole entry): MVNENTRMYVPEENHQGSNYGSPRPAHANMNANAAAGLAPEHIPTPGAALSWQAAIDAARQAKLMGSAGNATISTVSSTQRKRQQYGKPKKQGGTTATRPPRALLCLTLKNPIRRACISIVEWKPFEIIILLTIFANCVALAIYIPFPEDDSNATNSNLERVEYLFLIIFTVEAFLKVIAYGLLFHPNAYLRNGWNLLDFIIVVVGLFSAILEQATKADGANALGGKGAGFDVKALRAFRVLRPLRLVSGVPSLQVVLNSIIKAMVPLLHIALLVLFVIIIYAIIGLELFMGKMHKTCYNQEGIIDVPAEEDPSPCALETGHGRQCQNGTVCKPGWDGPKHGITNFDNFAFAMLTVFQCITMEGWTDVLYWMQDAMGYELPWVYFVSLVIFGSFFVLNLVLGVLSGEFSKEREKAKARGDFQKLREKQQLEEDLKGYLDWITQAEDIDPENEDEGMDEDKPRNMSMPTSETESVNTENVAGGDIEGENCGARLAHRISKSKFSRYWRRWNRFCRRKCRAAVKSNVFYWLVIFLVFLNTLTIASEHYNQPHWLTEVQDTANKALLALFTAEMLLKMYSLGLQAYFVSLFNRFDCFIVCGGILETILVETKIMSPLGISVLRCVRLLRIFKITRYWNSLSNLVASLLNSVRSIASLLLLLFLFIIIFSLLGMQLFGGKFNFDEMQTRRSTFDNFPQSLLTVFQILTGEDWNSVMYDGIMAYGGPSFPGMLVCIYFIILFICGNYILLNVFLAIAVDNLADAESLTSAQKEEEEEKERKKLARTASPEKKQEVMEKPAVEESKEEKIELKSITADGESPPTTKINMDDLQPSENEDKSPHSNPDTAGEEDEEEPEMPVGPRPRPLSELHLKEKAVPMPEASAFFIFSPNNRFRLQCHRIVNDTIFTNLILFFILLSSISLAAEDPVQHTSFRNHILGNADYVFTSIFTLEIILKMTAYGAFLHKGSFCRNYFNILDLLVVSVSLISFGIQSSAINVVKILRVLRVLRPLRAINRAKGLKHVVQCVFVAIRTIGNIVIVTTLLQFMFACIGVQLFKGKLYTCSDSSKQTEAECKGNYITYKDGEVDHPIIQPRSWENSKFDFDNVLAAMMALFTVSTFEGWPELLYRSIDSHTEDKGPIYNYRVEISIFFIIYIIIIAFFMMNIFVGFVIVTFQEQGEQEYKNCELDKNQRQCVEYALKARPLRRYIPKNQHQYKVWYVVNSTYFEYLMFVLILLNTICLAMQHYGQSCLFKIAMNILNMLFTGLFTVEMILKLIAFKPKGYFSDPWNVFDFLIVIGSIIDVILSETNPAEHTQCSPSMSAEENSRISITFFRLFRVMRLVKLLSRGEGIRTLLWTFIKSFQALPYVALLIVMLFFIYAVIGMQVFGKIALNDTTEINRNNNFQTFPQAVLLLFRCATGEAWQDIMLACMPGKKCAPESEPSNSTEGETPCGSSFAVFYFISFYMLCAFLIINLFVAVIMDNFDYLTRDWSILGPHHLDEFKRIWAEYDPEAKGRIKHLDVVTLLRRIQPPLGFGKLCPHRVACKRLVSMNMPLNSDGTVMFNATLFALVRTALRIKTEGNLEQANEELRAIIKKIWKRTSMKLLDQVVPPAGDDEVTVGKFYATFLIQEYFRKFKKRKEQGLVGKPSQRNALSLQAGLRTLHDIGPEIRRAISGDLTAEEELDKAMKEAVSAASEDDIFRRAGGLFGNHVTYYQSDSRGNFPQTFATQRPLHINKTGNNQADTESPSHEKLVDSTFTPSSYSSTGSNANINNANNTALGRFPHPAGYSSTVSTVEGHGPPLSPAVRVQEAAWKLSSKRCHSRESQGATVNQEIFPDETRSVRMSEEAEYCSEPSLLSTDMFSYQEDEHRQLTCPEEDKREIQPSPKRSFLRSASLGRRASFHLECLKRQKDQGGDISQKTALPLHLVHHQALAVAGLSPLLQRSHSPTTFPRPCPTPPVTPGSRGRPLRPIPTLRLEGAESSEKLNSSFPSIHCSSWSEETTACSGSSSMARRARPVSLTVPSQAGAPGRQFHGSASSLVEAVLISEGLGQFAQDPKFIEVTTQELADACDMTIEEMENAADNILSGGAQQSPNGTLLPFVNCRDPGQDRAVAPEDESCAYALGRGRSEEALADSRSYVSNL
# T1 sequence (O08532 25-1103 partner): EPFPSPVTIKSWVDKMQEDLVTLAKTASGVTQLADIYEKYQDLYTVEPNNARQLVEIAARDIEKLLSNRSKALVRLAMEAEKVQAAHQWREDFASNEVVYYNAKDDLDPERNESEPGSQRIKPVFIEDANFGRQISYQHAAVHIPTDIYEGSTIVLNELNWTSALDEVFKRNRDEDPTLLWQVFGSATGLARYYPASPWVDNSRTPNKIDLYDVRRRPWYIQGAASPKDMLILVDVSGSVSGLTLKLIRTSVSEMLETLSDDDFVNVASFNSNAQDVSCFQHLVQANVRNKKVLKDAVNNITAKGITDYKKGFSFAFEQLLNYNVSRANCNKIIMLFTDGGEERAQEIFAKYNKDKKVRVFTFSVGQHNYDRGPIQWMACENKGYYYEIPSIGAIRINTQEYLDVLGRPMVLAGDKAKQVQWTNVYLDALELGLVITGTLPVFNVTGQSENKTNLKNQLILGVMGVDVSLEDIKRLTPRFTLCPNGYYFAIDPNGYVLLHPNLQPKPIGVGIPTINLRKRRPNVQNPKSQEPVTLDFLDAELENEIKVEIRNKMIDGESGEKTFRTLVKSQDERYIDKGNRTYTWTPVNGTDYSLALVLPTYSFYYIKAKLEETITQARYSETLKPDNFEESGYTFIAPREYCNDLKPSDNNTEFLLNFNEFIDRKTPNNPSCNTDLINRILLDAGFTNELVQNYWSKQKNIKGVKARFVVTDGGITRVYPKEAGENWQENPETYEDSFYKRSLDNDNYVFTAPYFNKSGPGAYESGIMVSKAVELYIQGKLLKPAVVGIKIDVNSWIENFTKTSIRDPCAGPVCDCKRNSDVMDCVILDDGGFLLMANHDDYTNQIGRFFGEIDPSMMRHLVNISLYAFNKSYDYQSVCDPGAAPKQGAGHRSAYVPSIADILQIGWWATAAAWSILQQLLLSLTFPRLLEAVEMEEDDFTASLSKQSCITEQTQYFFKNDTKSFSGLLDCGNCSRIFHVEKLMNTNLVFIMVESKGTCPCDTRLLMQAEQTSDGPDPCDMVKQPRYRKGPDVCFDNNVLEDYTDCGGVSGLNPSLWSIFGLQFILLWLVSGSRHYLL
# T1 sequence (P54285 whole entry partner): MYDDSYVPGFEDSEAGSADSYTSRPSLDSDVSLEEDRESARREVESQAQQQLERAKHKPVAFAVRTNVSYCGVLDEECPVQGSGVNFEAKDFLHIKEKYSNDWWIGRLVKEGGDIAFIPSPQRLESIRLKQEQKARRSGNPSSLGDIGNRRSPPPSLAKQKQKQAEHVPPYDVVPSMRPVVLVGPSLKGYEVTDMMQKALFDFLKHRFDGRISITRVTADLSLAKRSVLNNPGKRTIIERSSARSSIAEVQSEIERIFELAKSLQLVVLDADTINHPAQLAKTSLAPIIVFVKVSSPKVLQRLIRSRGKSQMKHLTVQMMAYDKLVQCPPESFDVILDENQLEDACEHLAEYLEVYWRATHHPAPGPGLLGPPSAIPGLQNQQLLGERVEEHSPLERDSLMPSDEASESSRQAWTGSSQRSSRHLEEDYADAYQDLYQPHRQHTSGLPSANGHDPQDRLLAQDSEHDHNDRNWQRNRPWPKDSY
# Experimental: So to identify the target of certain kudinosides, patch-clamp studies were used to examine the modulation of L-type calcium channel currents after Kudinosides treatment. In patch-clamp studies, whole-cell patch clamp recording of VDCC currents were performed at room temperature, in response to voltage pulses (−60 to +50 mV from a holding potential of −80 mV, 200 ms).
molecule,measurement,setting,value
"CC1(C)[C@@H](O)CC[C@]2(C)[C@H]3C(=O)C=C4[C@@H]5C[C@@](C)(C(=O)O)CC[C@]5(C)CC[C@@]4(C)[C@]3(C)CC[C@@H]12 [Glycyrrhetinic acid, reference compound]",relaxation of MCh-evoked force at final concentration of 500 μM,[1],about 50%
same,IC50,[1]; Mus musculus,84.3 µM
"COC(=O)[C@@]1(C)CC[C@]2(C(=O)O)CC[C@]3(C)C(=CC[C@@H]4[C@@]5(C)C[C@H](O)[C@H](O)[C@@](C)(CO)[C@@H]5CC[C@]43C)[C@@H]2C1 [Phytolaccagenin, reference compound]",relaxation of MCh-evoked force at final concentration of 500 μM,[1],about 50%
"C[C@@H]1O[C@@H](O[C@H]2[C@H](O[C@H]3[C@H](O[C@H]4CC[C@]5(C)[C@H]6CC=C7[C@@H]8CC(C)(C)CC[C@]8(C(=O)O)CC[C@@]7(C)[C@]6(C)CC[C@H]5C4(C)C)OC[C@H](O)[C@@H]3O)O[C@H](CO)[C@@H](O)[C@@H]2O)[C@H](O)[C@H](O)[C@H]1O [Raddeanin A, reference compound]",relaxation of MCh-evoked force at final concentration of 500 μM,[1],about 50%
"C[C@@H]1O[C@@H](O[C@@H]2[C@H](O)[C@@H](O)[C@H](O[C@H]3CC[C@@]4(C)C(CC[C@]5(C)C4C=C[C@]46OC[C@@]7(CCC(C)(C)CC74)[C@@H](O)C[C@]65C)C3(C)C)O[C@@H]2CO[C@@H]2O[C@H](CO)[C@@H](O)[C@H](O)[C@H]2O)[C@H](O)[C@H](O)[C@H]1O (stereo partly drawn) [Saikosaponin C, reference compound]",relaxation of MCh-evoked force at final concentration of 500 μM,[1],about 50%
same,IC50,[1],> 150 µM
"C[C@@H]1O[C@@H](O[C@H]2[C@H](O[C@H]3[C@H](O[C@H]4CC[C@@]5(C)[C@@H](CC[C@]6(C)[C@@H]5CC=C5[C@@H]7CC(C)(C)C[C@@H](O)[C@]7(C)CC[C@]56C)[C@@]4(C)CO)O[C@H](C(=O)O)[C@@H](O)[C@@H]3O)O[C@H](CO)[C@H](O)[C@@H]2O)[C@H](O)[C@H](O)[C@H]1O [Soyasaponin Bb, reference compound]",relaxation of MCh-evoked force at final concentration of 500 μM,[1],about 50%
"CC(C)(C)NCC(O)c1ccc(O)c(CO)c1 (stereo not drawn) [albuterol, reference compound]","reduction of airway resistance at 1 minute after inhalation, 3 μg (positive control)","[2]; 3 μg inhaled, 1 minute, printed as 'led to a reduction of'",55.59±13.07%
same,effect on asthmatic airway resistance,"[2]; n-BuOH phase 30 μg, albuterol 3 μg, inhaled after MCh challenge",significant reduction of airway resistance
same,duration of release of dyspnea,human asthma (severe),could not be maintained overnight
same,time to release of dyspnea,human asthma (severe),≤ 3 min
Kudinoside A,force relaxed / inhibition of evoked force at 30 μM,"[1]; force evoked by acetylcholine, cumulative concentrations, 30 μM",80%
same,relaxation of evoked force of airway smooth muscle / bronchial rings,[1],significantly relaxed bronchial rings in a dose-dependent manner
same,decrease of current generated by L-type calcium channel compared to vehicle,L-type calcium channel,about 60%
same,duration of release of dyspnea,human asthma (severe),maintained overnight
same,PEF value after inhalation,"human asthma (severe); 20 mM, 15 seconds inhalation, increased from 100",320
same,time to release of dyspnea,human asthma (severe),5 min
Kudinoside C,relaxation of evoked force of airway smooth muscle / bronchial rings,[1],strong relaxation effect on airway smooth muscles
same,inhibition of airway constriction in vivo,[2],significant inhibition of airway constriction
Kudinoside H,relaxation of evoked force of airway smooth muscle / bronchial rings,[1],fails to show effective bronchial ring relaxation; also recorded: little effect on relaxation in vitro
same,inhibition of airway constriction in vivo,[2],little inhibition activity of airway constriction in vivo
